The source of these data is article PMC8994207 (Journal of medicinal chemistry, 2021).

One data set concerns 12-month old mice. Description: Sleep modulation study, continuous EEG/EMG recordings. Type of data set: in vivo.
Another data set has as its target T1, human OX2R (Homo sapiens, UniProt O43614).
T1 sequence (O43614 1-444): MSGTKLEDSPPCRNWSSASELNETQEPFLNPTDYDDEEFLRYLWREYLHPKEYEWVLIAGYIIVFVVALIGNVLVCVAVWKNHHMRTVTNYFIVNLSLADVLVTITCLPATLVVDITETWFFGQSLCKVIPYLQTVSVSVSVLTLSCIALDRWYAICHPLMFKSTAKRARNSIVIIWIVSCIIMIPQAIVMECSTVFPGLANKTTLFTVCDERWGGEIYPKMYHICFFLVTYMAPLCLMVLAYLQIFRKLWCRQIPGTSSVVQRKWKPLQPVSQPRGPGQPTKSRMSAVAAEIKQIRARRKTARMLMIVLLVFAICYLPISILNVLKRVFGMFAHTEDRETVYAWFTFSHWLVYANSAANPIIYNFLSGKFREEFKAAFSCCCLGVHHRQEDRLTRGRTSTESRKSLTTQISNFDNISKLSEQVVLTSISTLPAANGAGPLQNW
Kind of data set: OX2R calcium mobilization assay. The following applies: for agonist activity at OX2R (in words): calcium mobilization. In general terms: A change in cytosolic calcium serves as a functional read-out for many receptors and channels.

In another data set the target is T2, human OX1R (Homo sapiens, UniProt O43613).
T2 sequence (O43613 1-425): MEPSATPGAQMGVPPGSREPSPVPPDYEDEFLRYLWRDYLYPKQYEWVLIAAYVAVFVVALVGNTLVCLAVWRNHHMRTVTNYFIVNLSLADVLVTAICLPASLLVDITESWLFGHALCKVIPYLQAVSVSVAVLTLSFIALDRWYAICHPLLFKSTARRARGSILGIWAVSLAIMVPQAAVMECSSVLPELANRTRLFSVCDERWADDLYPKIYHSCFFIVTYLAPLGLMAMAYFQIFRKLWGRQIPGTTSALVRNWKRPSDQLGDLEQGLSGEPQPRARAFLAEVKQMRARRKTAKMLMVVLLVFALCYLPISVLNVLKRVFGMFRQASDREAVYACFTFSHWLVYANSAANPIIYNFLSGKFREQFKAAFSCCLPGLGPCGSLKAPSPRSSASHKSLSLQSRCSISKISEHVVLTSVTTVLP
Description: OX1R calcium mobilization assay. The settings on record: for agonist activity at OX1R (in words): calcium mobilization.

In the next data set the test system is mice. The settings on record: cited from earlier work.
The test system of another data set is rats. The following applies: EEG changes, locomotor activity, startle response latency; cited from earlier work.
The conditions of data set [1]: cited from earlier work.
A further data set concerns OX1R. The following applies: read-out: EC50 at OX1R; weak agonist of both OX receptors; cited from earlier work.
Another data set has as its system OX2R. The settings on record: read-out: EC50 at OX2R; weak agonist of both OX receptors; cited from earlier work.
Where [2] appears, read: 40 mg/kg i.p., 4 h post-injection, vs saline.
The mark [3] stands for this setting: 40 mg/kg i.p., lights-on phase, 12-month old mice, 0-4 h post-injection, vs vehicle.
Where [4] appears, read: i.p. injection, 12-month old mice.
[5] abbreviates: i.c.v. 30, 100, 300 nmol, light phase, up to 3 h post injection.
[6] abbreviates: i.p. 40 and 60 mg/kg, 6 h into the light phase, up to 3 h, mice.

Entries after “also recorded” stand apart in the source; their conditions may differ. Like-named read-outs stand apart in the source and are kept apart here. Where only a bound is given, the exact number is not on record here.

A word on the Emax: it is the greatest response seen or fitted, relative to the assay's reference. As for `COc1ccc(-c2cccc(C(=O)N(C)Cc3ccncc3)c2)cc1S(=O)(=O)Nc1cccc(NCCNC(=O)c2cccc(C)c2)c1` [compound 40, 4’-Methoxy-N-methyl-3’-(N-(3-((2-(3-methylbenzamido)ethyl)amino)phenyl)sulfamoyl)-N-(pyridin-4-ylmethyl)-[1,1’-biphenyl]-3-carboxamide], in the data set on 12-month old mice (setting [2]), the “duration of NREM sleep episodes” value was “increased”, the “duration of REM sleep episodes” value is on record as “did not affect; also recorded: without effecting”, the “duration of wake episodes” value is “increased” and the “number of NREM sleep episodes” value is given as “Reduced”. In the data set on 12-month old mice (setting [2]), the “number of REM sleep episodes” value was “fewer episodes; also recorded: reduced”, the “number of state transitions” value is “reduced” and the “number of wake episodes” value is “reduced”. For the same molecule, in the data set on 12-month old mice (setting [3]), the “time spent in NREM sleep” value is reported as “reduced; also recorded: decreased” and the “time spent in REM sleep” value is listed as “reduced; also recorded: decreased”. Also, the “time spent in wakefulness” value with 12-month old mice (40 mg/kg i.p., quiet lights-on phase, 12-month old mice, 0-4 h post-injection, vs vehicle) is “significantly increased”. Moreover, in the data set with 12-month old mice (setting [4]), the sleep/wake consolidation result is reported as “increased; also recorded: improved” and the time asleep entry is listed as “decreased”. The “agonist activity at OX2R (in words)” value on human OX2R is on record as “full agonist”. The Emax at human OX2R (read-out: Emax at OX2R) is about 100%. For the same molecule, at human OX1R, the “agonist activity at OX1R (in words)” value is on record as “full agonist”. The Emax at human OX1R (read-out: Emax at OX1R) is about 100%.
Turning to `COc1ccc(/C=C/C(=O)N(C)C)cc1S(=O)(=O)Nc1cccc(NCCNC(=O)c2cccc(C)c2)c1` [compound 31, (E)-N-(2-((3-((5-(3-(dimethylamino)-3-oxoprop-1-en-1-yl)-2-methoxyphenyl)sulfonamido)-phenyl)amino)ethyl)-3-methylbenzamide], at human OX2R, the “agonist activity at OX2R (in words)” value is “inactive”. On human OX1R, the “agonist activity at OX1R (in words)” value was “inactive”.
Take `COc1ccc(-c2cccc(C(=O)NCCN(C)C)c2)cc1S(=O)(=O)Nc1cccc(NCCNC(=O)c2cccc(C)c2)c1` [compound 34, N-(2-(dimethylamino)ethyl)-4’-methoxy-3’-(N-(3-((2-(3-methylbenzamido)ethyl)amino)phenyl)sulfamoyl)-[1,1’-biphenyl]-3-carboxamide]: on human OX1R, the “agonist activity at OX1R (in words)” value was “complete loss of potency”.
In the case of `COc1ccc(-c2cccc(C(=O)N(C)C)c2)cc1S(=O)(=O)Nc1cccc(N2CCN(C(=O)c3cccc(C)c3)CC2)c1` [compound 23, 4’-Methoxy-N,N-dimethyl-3’-(N-(3-(4-(3-methylbenzoyl)piperazin-1-yl)phenyl)sulfamoyl)-[1,1’-biphenyl]-3-carboxamide], the “agonist activity at OX2R (in words)” value at human OX2R is reported as “all activities were lost”. Besides, the “agonist activity at OX1R (in words)” value on human OX1R is “all activities were lost”.
Turning to `COc1ccc(-c2cccc(C(=O)N(C)Cc3ccccc3)c2)cc1S(=O)(=O)Nc1cccc(NCCNC(=O)c2cccc(C)c2)c1` [compound 36, N-Benzyl-4’-methoxy-N-methyl-3’-(N-(3-((2-(3-methylbenzamido)ethyl)amino)phenyl)sulfa-moyl)-[1,1’-biphenyl]-3-carboxamide], the “agonist activity at OX1R (in words)” value at human OX1R is reported as “no activity”.
As for `COc1ccc(-c2cccc(C(=O)N(C)C)c2)cc1S(=O)(=O)Nc1cccc(NCCNC(=O)c2ccccc2N(C)C)c1` [compound 2, 3’-(N-(3-((2-(2-(dimethylamino)benzamido)ethyl)amino)phenyl)sulfamoyl)-4’-methoxy-N,-N-dimethyl-[1,1’-biphenyl]-3-carboxamide], in the data set on mice (setting [5]), the “percent time in NREM sleep” value is reported as “decreased” and the time in wakefulness entry was “increased”. Further, the sleep/wake parameters entry in the data set with mice (i.p. 20 mg/kg) is on record as “did not have any effect”. The “percent time in NREM sleep” value in the data set on mice (i.p. 40 mg/kg, mice) is “reduced”. In addition, in the data set with mice (setting [6]), the “percent time in REM sleep” value is reported as “decreased” and the “percent time in wakefulness” value is “increased”. Besides, the wake time result in the data set with mice (i.p. 40 or 60 mg/kg) is recorded as “increased”. In the data set with mice (i.p. 40 or 60 mg/kg, for 3 hours), the “direct transitions from wakefulness to REM sleep” value is on record as “decreased”. In the data set with mice (orexin knock-out and orexin neuron-ablated mice), the cataplexy-like episodes result was “suppressed”. Moreover, in the data set with mice (wild-type mice, i.c.v. 30–300 nmol and/or i.p. 40 mg/kg, hydrochloride salt), the wakefulness result is listed as “promoted wakefulness”. Besides, in the data set with rats, the morphine-induced sedative effects result is on record as “attenuated”.
`CCCNC(=O)c1cccc(-c2ccc(OC)c(S(=O)(=O)Nc3cccc(NCCNC(=O)c4ccccc4N(C)C)c3)c2)c1` [compound 9, 3’-(N-(3-((2-(2-(dimethylamino)benzamido)ethyl)amino)phenyl)sulfamoyl)-4’-methoxy-N-p-ropyl-[1,1’-biphenyl]-3-carboxamide]: the “agonist activity at OX1R (in words)” value at human OX1R is “no activity”.
`COc1ccc(CCC(=O)N(C)C)cc1S(=O)(=O)Nc1cccc(NCCNC(=O)c2cccc(C)c2)c1` [compound 32, N-(2-((3-((5-(3-(dimethylamino)-3-oxopropyl)-2-methoxyphenyl)sulfonamido)phenyl)amin-o)ethyl)-3-methylbenzamide]: the “agonist activity at OX2R (in words)” value on human OX2R was “inactive”. Also, the “agonist activity at OX1R (in words)” value at human OX1R was “inactive”.
`COc1ccc(-c2cccc(CN(C)C)c2)cc1S(=O)(=O)Nc1cccc(NCCNC(=O)c2ccccc2N(C)C)c1` [compound 10, 2-(Dimethylamino)-N-(2-((3-((3’-((dimethylamino)methyl)-4-methoxy-[1,1’-biphenyl])-3-sulfonamido)phenyl)amino)ethyl)benzamide]: the “agonist activity at OX1R (in words)” value on human OX1R is on record as “no activity”.
The same measure, in the same setting: the result for `COc1ccc(-c2cccc(C(=O)N(C)C)n2)cc1S(=O)(=O)Nc1cccc(NCCNC(=O)c2cccc(C)c2)c1` [compound 27, 6-(4-methoxy-3-(N-(3-((2-(3-methylbenzamido)ethyl)amino)phenyl)sulfamoyl)phenyl)-N,N-dimethylpicolinamide] reads “full agonist”; that for `COc1ccc(-c2cccc(C(=O)N(C)Cc3ccncc3)c2)cc1C(=O)Nc1cccc(NCCNC(=O)c2cccc(C)c2)c1` [compound 44, 4-Methoxy-N^3’-methyl-N^3-(3-((2-(3-methylbenzamido)ethyl)amino)phenyl)-N^3’-(pyridin-4-ylmethyl)-[1,1’-biphenyl]-3,3’-dicarboxamide], “total loss of activity”.
One may read the EC50 as the midpoint of the concentration-response curve. For `Cc1ccc(Cn2c(=N)n(CC(O)c3ccc(Cl)c(Cl)c3)c3ccccc32)cc1` (stereo not shown) [compound 1], the cytotoxicity entry in data set [1] is on record as “OX receptor independent cytotoxicity”. In addition, the EC50 with OX1R and with OX2R was over 3.2 µM each time.
For the molecule `COc1ccc(-c2cccc(C(=O)NCc3ccccn3)c2)cc1S(=O)(=O)Nc1cccc(NCCNC(=O)c2cccc(C)c2)c1` [compound 38, 4’-Methoxy-3’-(N-(3-((2-(3-methylbenzamido)ethyl)amino)phenyl)sulfamoyl)-N-(pyridin-2-ylmethyl)-[1,1’-biphenyl]-3-carboxamide], the “agonist activity at OX1R (in words)” value at human OX1R is “complete loss of the OX1R potency”.
The same measure, in the same setting: under `COc1ccc(-c2cccc(C(=O)N(C)C)c2)cc1C(=O)Nc1cccc(NCCNC(=O)c2cccc(C)c2)c1` [compound 43, 4-Methoxy-N^3’,N^3’-dimethyl-N^3-(3-((2-(3-methylbenzamido)ethyl)amino)phenyl)-[1,1’-biph-enyl]-3,3’-dicarboxamide] stands “total loss of activity”.
With `COc1ccc(-c2cccc(C(=O)N(C)C)c2)cc1S(=O)(=O)Nc1cccc(N2CCN(C(=O)c3ccccc3N(C)C)CC2)c1` [compound 22, 3’-(N-(3-(4-(2-(dimethylamino)benzoyl)piperazin-1-yl)phenyl)sulfamoyl)-4’-methoxy-N,N-dimethyl-[1,1’-biphenyl]-3-carboxamide], on human OX2R, the “agonist activity at OX2R (in words)” value is reported as “all activities were lost”. Further, the “agonist activity at OX1R (in words)” value at human OX1R is given as “all activities were lost”.
